What was measured:
[1] = test system: rat embryonic myocardium cell line H9C2; assay: Doxorubicin-induced apoptosis, CellTiter-Glo cell viability; settings: for recovery, percent of original density: H9C2, 0.4 μM doxorubicin 24 hours
Method: The cells were plated into 48-well plates at 0.2×10^5 cells per well and allowed to attach overnight. […] Cell viability was measured on days 1, 2, 3, and 6 using the Promega CellTiter-Glo® Luminescent Cell Viability Assay.

[2] = test system: breast cancer cell line MDA-MB-231; assay: Potentiation of doxorubicin effect, CellTiter-Glo cell viability; assay type: cell-based
Method: The potentiation of doxorubicin effect of eEF2K inhibition by Compound 35 in combination with doxorubicin was evaluated. The breast cancer cell line MDA-MB-231 (ATCC No. HTB-26) was incubated with 0.4 μM doxorubicin for 24 hours, with both a negative control (untreated) group and a group receiving only 10 μM Compound 35 but not doxorubicin.

recombinant eEF2K = recombinant eEF2K (Homo sapiens (Human), UniProt O00418); assay: eEF2K Kinase-Glo luminescent kinase assay (ATP consumption, peptide substrate); assay type: biochemical; settings: average of two to four separate experimental measurements, each the average of three replicates
Method: The following compounds were synthesized using the general methods described above. In the table below, IC50 values are in μM and are the average of two to four separate experimental measurements, each consisting in turn of the average of three replicates. IC50 values were calculated using the methods as described in Example 2. MW was determined by mass spectroscopy analysis, and is expressed as M+1.
To determine the IC50 of compounds of the invention, recombinant eEF2K was diluted in an assay buffer in the presence of calmodulin, a calcium-binding messenger protein expressed in eukaryotic cells, and incubated with peptide substrate Ac-RKKYKFNEDTERRRFL in the presence of Adenosine-5′-triphosphate (ATP) and the test compound. The peptide substrate is efficiently and specifically phosphorylated by eEF2K at a single substrate concentration of 100 μM. Using this peptide, eEF2K activity can be quantitatively determined using a Kinase-Glo® luminescent kinase assay kit (Promega) that measures ATP consumption by EF2K during phosphorylation of the substrate. ATP conversion was recorded using Perkin-Elmer Victor Luminometer. Data was plotted using GraphPad software and IC50 was calculated using 3-parameter sigmoidal curve fit.

[3] = test system: human bone osteosarcoma cancer cell line MG63; assay: Cell viability under normal conditions and nutrient deprivation, CellTiter-Glo; assay type: cell-based
Method: The effect of eEF2K inhibition on the malignant human bone osteosarcoma cancer cell line MG63 (ATCC No. CRL-1427) was evaluated under both normal conditions and during nutrient deprivation. […] One group of cells were grown under normal conditions (advanced MEM/glutamine/10% FBS) and the other group of cells were switched to conditions of nutrient deprivation (HBSS/22 mM HEPES) twenty-four hours after plating. Each group was divided into three subsets: cells receiving no treatment; cells receiving vehicle (DMSO) and cells receiving 10 μM of Compound 35.

[4] = Pharmacokinetic study, intravenous administration; settings: mouse, in vivo, male CD-1 mice, 1 mg/kg

With `COc1cccc2c1C(=O)c1c(O)c3c(c(O)c1C2=O)C[C@@](O)(C(=O)CO)C[C@@H]3O[C@H]1C[C@H](N)[C@H](O)[C@H](C)O1` [doxorubicin, reference compound] as the molecule, how does the “proliferation of remaining viable cells” value ([1]; H9C2, after doxorubicin was removed after 24 hours) read?
Its value is “failed to proliferate”.

And the cell death ([1]; H9C2, control arm, 0.4 μM doxorubicin for 24 hours)?
The cell death was 65%.

What about the “percent of viable cells” value ([2]; MDA-MB-231, 0.4 μM doxorubicin for 24 hours alone, by day 6) of the same molecule?
The value was “increased slightly”.

With `CC1(C)CCc2c(nc3sc(C(N)=O)c(N)c3c2-c2cncs2)C1` [Compound 35, 3-Amino-7,7-dimethyl-4-thiazol-5-yl-5,6,7,8-tetrahydro-thieno[2,3-b]quinoline-2-carboxylic acid amide] as the molecule, how does the “protection of H9C2 cells from doxorubicin-induced toxicity” value ([1]; 0.4 μM doxorubicin 24 hours, 2 μM or 10 μM compound twice daily for 72 hours) read?
Its value is “robust, dose-dependent protection”.

And the “recovery, percent of original density” value ([1]; 2 μM compound, by day 6)?
Its value is 85%.

And the “recovery, percent of original density” value ([1]; 10 μM compound, by day 2)?
The value was 85%.

And the IC50 (recombinant eEF2K)?
Its IC50 is 400 nM.

And the viability at 10 µM ([3]; Homo sapiens, MG-63, 144 h, MG63, nutrient deprivation (HBSS/22 mM HEPES), by day 6, read-out: percent viable cells)?
Its viability at 10 µM is less than 10%.

What about the cell growth ([3]; MG63, normal conditions (advanced MEM/glutamine/10% FBS), 10 μM) of the same molecule?
The cell growth was “significant growth”.

And the “percent of viable cells” value ([2]; MDA-MB-231, 0.4 μM doxorubicin 24 hours plus 10 μM Compound 35 twice daily for 72 hours, days 2, 4 and 6)?
Its value is “significant decrease”.

What about the “percent of viable cells” value ([2]; MDA-MB-231, 10 μM Compound 35 without doxorubicin, by day 6) of the same molecule?
Its value is “increased substantially”.

What about the half-life [4] of the same molecule?
The half-life was 34 min.

And the Cmax ([4]; at five minutes)?
Its Cmax is 356 ng/mL.

Which IC50 (recombinant eEF2K) does the source give for `CC1(C)CCc2c1nc1sc(C(N)=O)c(N)c1c2-c1ccc(Cl)s1` [Compound 24, 3-Amino-4-(5-chloro-thiophen-2-yl)-7,7-dimethyl-6,7-dihydro-5H-1-thia-8-aza-s-indacene-2-carboxylic acid amide] here?
The IC50 was 1400 nM.

Which IC50 (recombinant eEF2K) does the source give for `CC1(C)CCc2c1nc1sc(C(N)=O)c(N)c1c2-c1nccs1` [Compound 23, 3-Amino-7,7-dimethyl-4-thiazol-2-yl-6,7-dihydro-5H-1-thia-8-aza-s-indacene-2-carboxylic acid amide] here?
The IC50 was 2000 nM.

With `Cc1csc(-c2c3c(nc4sc(C(N)=O)c(N)c24)C(C)(C)CC3)n1` [Compound 32, 3-Amino-7,7-dimethyl-4-(4-methyl-thiazol-2-yl)-6,7-dihydro-5H-1-thia-8-aza-s-indacene-2-carboxylic acid amide] as the molecule, how does the IC50 (recombinant eEF2K) read?
Its IC50 is 3800 nM.

Which IC50 (recombinant eEF2K) does the source give for `CC1(C)CCc2c1nc1sc(C(N)=O)c(N)c1c2-c1cc(Br)cs1` [Compound 25, 3-Amino-4-(4-bromo-thiophen-2-yl)-7,7-dimethyl-6,7-dihydro-5H-1-thia-8-aza-s-indacene-2-carboxylic acid amide] here?
The IC50 was 800 nM.

For `CC1CC(C)(C)Cc2nc3sc(C(N)=O)c(N)c3c(-c3ccc(Cl)o3)c21` (stereo not drawn) [Compound 12, 3-Amino-4-(5-chloro-furan-2-yl)-5,7,7-trimethyl-5,6,7,8-tetrahydro-thieno[2,3-b]quinoline-2-carboxylic acid amide], which IC50 (recombinant eEF2K) is on record?
The IC50 was 5000 nM.

For `CC1(C)CCc2nc3sc(C(N)=O)c(N)c3c(-c3cncs3)c2C1` [Compound 33, 3-Amino-6,6-dimethyl-4-thiazol-5-yl-5,6,7,8-tetrahydro-thieno[2,3-b]quinoline-2-carboxylic acid amide], which IC50 (recombinant eEF2K) is on record?
The IC50 was 1100 nM.

Which IC50 (recombinant eEF2K) does the source give for `Cc1ncsc1-c1c2c(nc3sc(C(N)=O)c(N)c13)C(C)(C)CC2` [Compound 40, 3-Amino-7,7-dimethyl-4-(4-methyl-thiazol-5-yl)-6,7-dihydro-5H-1-thia-8-aza-s-indacene-2-carboxylic acid amide] here?
Its IC50 is 400 nM.

For `CC1(C)CCc2nc3sc(C(N)=O)c(N)c3c(-c3ccoc3)c2C1` [Compound 21, 3-Amino-4-furan-3-yl-6,6-dimethyl-5,6,7,8-tetrahydro-thieno[2,3-b]quinoline-2-carboxylic acid amide], which IC50 (recombinant eEF2K) is on record?
The IC50 was 2000 nM.
